# Activity calls are given as the source filed them. For most assays here, no stated cut-off is given here; in the data, actives have a measured EC50 and inactives only a lower limit.
# Assays:
# [1] = target: Cyclin-dependent kinase 8 (Homo sapiens, UniProt P49336); test: Navigating the Kinome. Panel member name: CDK8; format: functional
# [2] = target: Tyrosine-protein kinase receptor TYRO3 (Homo sapiens, UniProt Q06418); format: functional;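 further: TYRO3 value obtained as one member of a kinome-wide profiling panel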
# [3] = target: T1, Apoptotic protease-activating factor 1 (Homo sapiens, UniProt O14727); test: SAR analysis of small molecule Activators of Apaf-1 in a Fluorescent assay.; format: functional; details: read-out: EC50_Mean;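 further: caspase-3 cleavage of fluorogenic Rh110 DEVD substrate downstream of apoptosome activation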
# T1 sequence (O14727 whole entry): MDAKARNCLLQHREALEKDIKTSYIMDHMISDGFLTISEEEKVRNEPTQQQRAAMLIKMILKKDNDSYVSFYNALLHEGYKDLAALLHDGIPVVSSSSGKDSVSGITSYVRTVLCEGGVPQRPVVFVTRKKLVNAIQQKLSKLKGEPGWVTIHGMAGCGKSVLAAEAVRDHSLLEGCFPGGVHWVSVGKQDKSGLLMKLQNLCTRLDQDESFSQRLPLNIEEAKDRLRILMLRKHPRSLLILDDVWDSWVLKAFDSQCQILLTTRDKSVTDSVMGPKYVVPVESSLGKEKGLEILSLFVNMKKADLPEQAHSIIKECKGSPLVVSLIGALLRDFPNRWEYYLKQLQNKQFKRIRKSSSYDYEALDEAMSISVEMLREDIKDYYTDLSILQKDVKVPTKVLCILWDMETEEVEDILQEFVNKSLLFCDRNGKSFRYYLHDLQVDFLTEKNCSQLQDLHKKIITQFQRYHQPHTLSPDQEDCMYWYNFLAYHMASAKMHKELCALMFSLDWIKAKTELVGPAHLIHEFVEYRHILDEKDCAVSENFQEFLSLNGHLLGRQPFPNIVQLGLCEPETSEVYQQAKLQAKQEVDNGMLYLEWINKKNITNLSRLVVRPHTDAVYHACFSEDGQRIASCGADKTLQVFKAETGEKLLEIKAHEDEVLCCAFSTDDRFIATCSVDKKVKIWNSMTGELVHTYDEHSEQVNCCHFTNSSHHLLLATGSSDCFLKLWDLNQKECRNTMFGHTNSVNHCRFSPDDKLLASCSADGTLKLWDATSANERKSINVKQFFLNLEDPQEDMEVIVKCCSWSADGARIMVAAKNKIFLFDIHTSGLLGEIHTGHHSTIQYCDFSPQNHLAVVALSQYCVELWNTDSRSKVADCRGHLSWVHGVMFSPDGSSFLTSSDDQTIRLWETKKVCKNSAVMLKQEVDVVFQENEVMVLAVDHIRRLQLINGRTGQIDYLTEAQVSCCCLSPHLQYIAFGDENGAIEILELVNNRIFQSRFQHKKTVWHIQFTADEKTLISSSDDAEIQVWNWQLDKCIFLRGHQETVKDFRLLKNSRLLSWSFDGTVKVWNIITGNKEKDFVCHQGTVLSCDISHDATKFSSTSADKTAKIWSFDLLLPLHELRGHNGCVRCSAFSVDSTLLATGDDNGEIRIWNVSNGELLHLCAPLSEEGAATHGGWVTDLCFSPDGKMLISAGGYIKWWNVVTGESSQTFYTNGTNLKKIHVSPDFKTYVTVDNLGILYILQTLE
# [4] = inhibitors of SNCA 5'UTR-driven reporter translation, confirmation, H4 neuroglioma cells, luminescence (AID 1988); format: functional, cell-based
# [5] = luciferase reporter signal reduction – luminescence, H4-C neuroglioblastoma cells, dose response (AID 2458); format: functional, cell-based;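 further: H4 neuroglioblastoma cells stably carrying a luciferase reporter gene fusion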
# [6] = inhibitors of SNCA 5'UTR-driven translation, confirmation, luminescence, H4 neuroglioblastoma cells, dose confirmation (AID 2454); format: functional, cell-based;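 further: H4 neuroglioblastoma cells carrying an alpha-synuclein 5'UTR luciferase reporter; potency for inhibition of the luciferase signal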
# cells = format: functional, cell-based
# [7] = cytotoxicity in KRAS-transformed pancreatic duct cells, primary screen, cell-based, fluorescence, HTS (AID 431); format: functional; details: Homo sapiens;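 further: cell line used: HPDE-C7K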
# [8] = target: T2, High affinity choline transporter 1 (Homo sapiens, UniProt Q9GZV3); test: CHT inhibitors, dose response, cell-based, 5-point CRC, membrane potential dye (AID 504840); format: functional
# T2 sequence (Q9GZV3 whole entry): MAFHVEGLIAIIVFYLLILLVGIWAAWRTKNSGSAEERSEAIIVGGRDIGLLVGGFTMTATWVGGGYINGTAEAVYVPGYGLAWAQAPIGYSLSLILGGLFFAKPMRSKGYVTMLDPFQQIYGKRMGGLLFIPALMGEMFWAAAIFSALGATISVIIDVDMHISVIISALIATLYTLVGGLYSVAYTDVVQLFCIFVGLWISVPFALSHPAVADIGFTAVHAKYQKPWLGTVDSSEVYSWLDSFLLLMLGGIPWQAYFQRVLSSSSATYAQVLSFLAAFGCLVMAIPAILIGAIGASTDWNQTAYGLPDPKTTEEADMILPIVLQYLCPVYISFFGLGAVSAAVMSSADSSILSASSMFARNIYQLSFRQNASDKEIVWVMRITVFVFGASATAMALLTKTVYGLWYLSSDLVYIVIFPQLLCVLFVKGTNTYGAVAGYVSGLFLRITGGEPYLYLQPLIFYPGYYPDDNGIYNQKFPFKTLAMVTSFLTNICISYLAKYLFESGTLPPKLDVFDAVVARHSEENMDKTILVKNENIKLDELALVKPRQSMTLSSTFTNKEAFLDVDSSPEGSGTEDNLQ
# [9] = inhibitors of firefly luciferase expression or activity, dose response, H4 neuroglioma cells, luminescence (AID 1990); format: functional, cell-based
# [10] = cytotoxicity in HPDE-C7 cells, cell-based, fluorescence, HTS (AID 430); format: functional; details: Homo sapiens
# [11] = target: T2, High affinity choline transporter 1; test: CHT inhibitors, dose response, cell-based, 10-point CRC, membrane potential dye (AID 588401); format: functional;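 further: membrane potential dye fluorescence of choline-evoked depolarization via CHT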
# [12] = target: Protein disulfide-isomerase (Homo sapiens, UniProt P07237); test: PDI inhibitors, insulin aggregation turbidity, dose response, biochemical, absorbance, cherry-picked samples (AID 602350); format: functional
# [13] = target: T3, RNA-editing ligase 1, mitochondrial (Trypanosoma brucei brucei, UniProt P86926); test: TbREL1 ligase inhibitors, dose response, biochemical, fluorescence, Trypanosoma brucei (AID 1117295); format: functional
# T3 sequence (P86926 whole entry): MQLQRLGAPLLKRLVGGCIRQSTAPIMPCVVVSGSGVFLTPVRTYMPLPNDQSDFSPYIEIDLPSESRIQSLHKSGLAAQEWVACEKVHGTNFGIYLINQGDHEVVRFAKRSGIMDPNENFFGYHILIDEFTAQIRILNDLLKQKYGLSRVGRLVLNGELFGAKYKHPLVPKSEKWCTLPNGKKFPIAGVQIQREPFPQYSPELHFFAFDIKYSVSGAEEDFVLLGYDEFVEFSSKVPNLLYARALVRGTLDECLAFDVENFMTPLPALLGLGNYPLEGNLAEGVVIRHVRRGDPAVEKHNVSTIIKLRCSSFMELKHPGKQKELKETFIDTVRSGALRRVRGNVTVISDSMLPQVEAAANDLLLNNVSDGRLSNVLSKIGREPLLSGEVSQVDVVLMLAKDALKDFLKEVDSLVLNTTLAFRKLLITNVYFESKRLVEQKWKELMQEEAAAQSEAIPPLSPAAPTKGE
# [14] = target: T4, Zinc finger protein mex-5 (Caenorhabditis elegans, UniProt Q9XUB2); test: MEX-5/TCR-2 RNA interaction inhibitors, dose response, biochemical, C. elegans, fluorescence polarization (AID 1960)
# T4 sequence (Q9XUB2 whole entry): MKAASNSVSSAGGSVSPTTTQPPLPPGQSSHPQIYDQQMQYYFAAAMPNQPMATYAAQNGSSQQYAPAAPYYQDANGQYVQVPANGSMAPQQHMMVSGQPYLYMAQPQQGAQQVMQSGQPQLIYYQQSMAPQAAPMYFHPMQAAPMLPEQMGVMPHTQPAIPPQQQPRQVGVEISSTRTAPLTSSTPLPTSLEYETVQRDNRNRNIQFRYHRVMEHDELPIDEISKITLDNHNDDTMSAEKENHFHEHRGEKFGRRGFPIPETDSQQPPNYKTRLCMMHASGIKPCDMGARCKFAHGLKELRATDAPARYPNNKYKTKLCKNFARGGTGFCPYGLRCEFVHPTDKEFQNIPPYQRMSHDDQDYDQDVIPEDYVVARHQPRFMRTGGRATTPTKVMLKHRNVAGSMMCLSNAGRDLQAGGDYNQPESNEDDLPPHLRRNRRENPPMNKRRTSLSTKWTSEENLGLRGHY
# [15] = target: T5, Mannose-6-phosphate isomerase (Homo sapiens, UniProt P34949); test: human PMI inhibitors, high substrate, primary screen, biochemical, fluorescence intensity, high mannose 6-phosphate (AID 1220)
# T5 sequence (P34949 whole entry): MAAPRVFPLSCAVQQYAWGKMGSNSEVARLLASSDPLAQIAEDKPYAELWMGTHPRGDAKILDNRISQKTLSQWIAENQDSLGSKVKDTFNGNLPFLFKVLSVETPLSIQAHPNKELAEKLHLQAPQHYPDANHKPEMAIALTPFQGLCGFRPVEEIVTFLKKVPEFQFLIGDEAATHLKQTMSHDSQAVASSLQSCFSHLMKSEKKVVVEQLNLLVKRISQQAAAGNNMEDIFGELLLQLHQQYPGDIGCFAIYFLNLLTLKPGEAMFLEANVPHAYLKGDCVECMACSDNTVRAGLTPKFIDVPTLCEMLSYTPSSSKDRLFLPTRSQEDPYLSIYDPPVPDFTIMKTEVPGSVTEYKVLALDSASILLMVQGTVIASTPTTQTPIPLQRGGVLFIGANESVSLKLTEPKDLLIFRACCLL
# [16] = target: T6, RNA-binding protein pos-1 (Caenorhabditis elegans, UniProt G5EF15); test: inhibitors of POS-1/mex-3 RNA binding, dose response, biochemical, fluorescence polarization (AID 1964);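 further: purified POS-1 fused to maltose binding protein made in E. coli; potency of compounds blocking POS-1 binding to fluorescent RNA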
# T6 sequence (G5EF15 whole entry): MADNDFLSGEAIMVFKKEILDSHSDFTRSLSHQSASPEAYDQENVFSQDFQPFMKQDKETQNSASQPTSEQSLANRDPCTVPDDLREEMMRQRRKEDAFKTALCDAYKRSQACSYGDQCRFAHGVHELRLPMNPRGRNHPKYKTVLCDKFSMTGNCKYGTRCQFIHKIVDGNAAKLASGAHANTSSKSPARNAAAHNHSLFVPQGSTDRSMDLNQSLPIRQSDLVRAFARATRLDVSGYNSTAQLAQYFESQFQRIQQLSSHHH
# Sequence of Cyclin-dependent kinase 8 (P49336 whole entry): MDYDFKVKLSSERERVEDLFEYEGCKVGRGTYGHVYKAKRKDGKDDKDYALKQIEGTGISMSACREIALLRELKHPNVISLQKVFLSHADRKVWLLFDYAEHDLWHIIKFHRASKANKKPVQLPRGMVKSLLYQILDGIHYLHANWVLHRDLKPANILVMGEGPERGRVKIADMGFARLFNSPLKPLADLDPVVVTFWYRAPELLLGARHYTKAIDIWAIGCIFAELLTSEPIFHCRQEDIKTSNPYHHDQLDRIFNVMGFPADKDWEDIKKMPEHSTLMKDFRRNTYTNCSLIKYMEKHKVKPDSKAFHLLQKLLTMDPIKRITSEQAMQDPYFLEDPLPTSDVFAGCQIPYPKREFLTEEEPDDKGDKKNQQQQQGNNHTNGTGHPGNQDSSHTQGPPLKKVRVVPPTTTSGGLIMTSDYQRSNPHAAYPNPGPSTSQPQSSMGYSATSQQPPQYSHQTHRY
# Sequence of Protein disulfide-isomerase (P07237 whole entry): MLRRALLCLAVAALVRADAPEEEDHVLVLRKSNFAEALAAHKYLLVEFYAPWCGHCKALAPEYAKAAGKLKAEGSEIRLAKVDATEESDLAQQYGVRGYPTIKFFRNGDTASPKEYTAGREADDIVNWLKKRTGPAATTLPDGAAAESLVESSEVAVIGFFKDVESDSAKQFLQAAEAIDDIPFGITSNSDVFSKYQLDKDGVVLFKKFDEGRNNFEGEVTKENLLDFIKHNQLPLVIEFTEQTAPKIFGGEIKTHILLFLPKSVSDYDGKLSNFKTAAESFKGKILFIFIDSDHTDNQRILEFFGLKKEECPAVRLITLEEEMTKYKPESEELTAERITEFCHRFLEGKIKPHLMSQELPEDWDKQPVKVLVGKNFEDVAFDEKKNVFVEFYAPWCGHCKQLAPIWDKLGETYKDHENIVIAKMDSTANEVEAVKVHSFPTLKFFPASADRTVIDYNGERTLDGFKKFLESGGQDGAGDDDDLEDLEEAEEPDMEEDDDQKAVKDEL
# Sequence of Tyrosine-protein kinase receptor TYRO3 (Q06418 whole entry): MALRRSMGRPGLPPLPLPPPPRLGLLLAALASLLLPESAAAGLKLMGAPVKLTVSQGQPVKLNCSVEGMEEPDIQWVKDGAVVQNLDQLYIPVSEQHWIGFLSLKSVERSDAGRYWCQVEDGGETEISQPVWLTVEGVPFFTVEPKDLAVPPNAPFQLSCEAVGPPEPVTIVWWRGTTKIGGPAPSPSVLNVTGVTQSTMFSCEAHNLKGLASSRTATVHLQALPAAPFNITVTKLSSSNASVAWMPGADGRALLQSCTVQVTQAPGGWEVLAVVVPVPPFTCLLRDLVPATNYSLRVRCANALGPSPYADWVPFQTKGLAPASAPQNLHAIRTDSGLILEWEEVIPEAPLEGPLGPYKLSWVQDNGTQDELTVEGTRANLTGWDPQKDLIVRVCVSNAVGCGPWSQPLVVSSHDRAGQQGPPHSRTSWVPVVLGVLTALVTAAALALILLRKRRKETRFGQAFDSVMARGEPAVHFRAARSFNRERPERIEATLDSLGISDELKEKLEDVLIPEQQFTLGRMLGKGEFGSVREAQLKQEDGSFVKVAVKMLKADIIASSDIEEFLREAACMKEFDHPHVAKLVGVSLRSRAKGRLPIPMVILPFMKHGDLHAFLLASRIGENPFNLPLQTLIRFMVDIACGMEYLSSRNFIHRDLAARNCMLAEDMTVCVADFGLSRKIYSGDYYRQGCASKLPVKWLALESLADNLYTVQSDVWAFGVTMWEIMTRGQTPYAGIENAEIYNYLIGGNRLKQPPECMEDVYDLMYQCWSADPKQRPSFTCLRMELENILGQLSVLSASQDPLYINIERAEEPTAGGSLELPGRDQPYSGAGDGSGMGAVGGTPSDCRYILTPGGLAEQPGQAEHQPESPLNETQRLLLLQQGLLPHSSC
smiles,measurement,setting,value
NC(=O)CCN1CCN(C2Cc3cc(Cl)ccc3Sc3cc(F)ccc32)CC1 (configuration not stated),Ki,[1],1.58 µM (active)
same,Ki,[2],1.58 µM (active)
Cc1ccc(N2C(=O)CC3(CC(c4ccccc4Cl)=NO3)C2=O)cc1 (configuration not stated),EC50,[3],> 100 µM (inactive)
COc1ccc(C2=Nn3c(nnc3-c3ccccc3OC)SC2)cc1OC,EC50,[4],< 0.1 µM (active)
same,EC50,[5],0.624 µM (active)
same,EC50,[6],0.551 µM (active)
same,EC50,cells,0.494 µM (active)
same,EC50,[7],0.3 µM (active)
same,IC50,[8],1.15 µM (active)
same,EC50,[9],< 0.1 µM (active)
same,EC50,[10],0.7 µM (active)
same,IC50,[11],4.22 µM (active)
C[C@@H]1O[C@@H](Oc2c(-c3cc(O)c(O)c(O)c3)oc3cc(O)cc(O)c3c2=O)[C@H](O)[C@H](O)[C@H]1O,AC50,[12],9.8 µM (active)
same,IC50,[13],51.4 µM (inactive)
same,EC50,[14],14 µM (active)
same,IC50,[15],31 µM (active)
same,EC50,[16],15.8 µM (active)

# — ChEMBL document CHEMBL1201862, “PubChem BioAssay data set” (2004)
